Results: patent US20080019949A1, “DIFFERENTIATION OF STEM CELLS FROM UMBILICAL CORD MATRIX INTO […] CELLS” (UNIVERSITY OF KANSAS, priority 2006, published 2008)

Assays:
[1] = system: differentiated HUCM cells (hepatocyte-like cells)
Protocol: RNA isolation and Reverse Transcription Polymerase Chain Reaction (RT-PCR.): RNA was isolated from cells on RNeasy Quick spin columns (Qiagen, Valencia, Calif.) and converted to cDNA using random hexamers and SuperScript II reverse transcriptase (Invitrogen, Carlsbad, Calif.). PCR was performed using a BioRad I-Cycler. Products were resolved by 2% agarose gel electrophoresis and visualized by ethidium bromide staining. Expression of numerous hepatocyte-specific genes was analyzed, including CK18, cytokeratin 18; HNF3-β, hepatocyte nuclear factor 3β; CK19, cytokeratin 19; AFP, alpha fetoprotein; Alb, albumin; and CYP2B6, cytochrome P450 2 family.
Cytochromes were induced by treatment with; Rifamicin (RIF), 20 um; Penobarbital (PB), 2 mM; forskolin, 50 uM; 8-Bromo-cAMP, 1 mM (Tocris, Ellisville, Mo.); and vehicle controls for 24-hour period. mRNA was then harvested and then analyzed by RT-PCR.

[2] = system: differentiated and undifferentiated HUMCs; experiment: Cellular uptake of Indocyanine Green (ICG); assay type: cell-based, human; conditions: 1 mg/mL ICG concentration
Protocol: Cellular uptake of Indocyanine Green (ICG.): ICG was dissolved to an initial concentration of 5 mg/mL in solvent. The solution was then diluted to 1 mg/mL in maturation media and added to the culture dish and incubated at 37° C. in a humidified incubator at 5% CO2 for 10-15 minutes. The cells were washed thoroughly with sterile PBS and then visualized under a light microscope. After examination, the PBS was then removed and maturation media was added and the cells incubated at 37° C. in a humidified incubator at 5% CO2 for ˜4-6 hours to confirm elimination of ICG.

| Compound | expression of inducible markers (CAR, PXR, PGC-1, PEPCK, PPAR-γ, CYP3A4, HNF4α) [1] | adverse effects on cells [2] | CYP3A4 expression (RT-PCR) [1] | PXR expression (RT-PCR) [1] |
| --- | --- | --- | --- | --- |
| C=C[C@@]1(C)CC(=O)[C@]2(O)[C@@]3(C)[C@@H](O)CCC(C)(C)[C@@H]3[C@H](O)[C@H](OC(C)=O)[C@@]2(C)O1 [forskolin] | showed a number of hepatocyte-inducible genes or an increase in expression levels | – | – | – |
| CC1(C)C(/C=C/C=C/C=C/C=C2\N(CCCCS(=O)(=O)O)c3ccc4ccccc4c3C2(C)C)=[N+](CCCCS(=O)(=O)[O-])c2ccc3ccccc3c21 [ICG, Indocyanine Green] | – | no adverse effects were observed | – | – |
| CCC1(c2ccccc2)C(=O)NC(=O)NC1=O [PB, phenobarbital] | showed a number of hepatocyte-inducible genes or an increase in expression levels | – | induced | induced |
